In brackets after ≈: the same amount, converted by molar mass.
Tests used:
[1] = Aqueous solubility of the compound in water containing 5% dextrose at pH 4; format: physicochemical
Enterococcus faecalis = assay: Antibacterial activity against Enterococcus faecalis C21560 by turbidity method; format: functional; settings: read-out: MIC100
Staphylococcus aureus = assay: Antibacterial activity against Staphylococcus aureus MB2865 by turbidity method; format: functional; settings: read-out: MIC100
Streptococcus pneumoniae = assay: Antibacterial activity against Streptococcus pneumoniae CL2883 by turbidity method; format: functional; settings: read-out: MIC100

SMILES	solubility [1] [µg/mL]	MIC (Enterococcus faecalis) [µg/mL]	MIC (Staphylococcus aureus) [µg/mL]	MIC (Streptococcus pneumoniae) [µg/mL]
CO/C(C)=C1/NC(=O)[C@H]([C@@H](C)O)NC(=O)c2csc(n2)-c2cc(O)c(-c3nc(CNC(=O)NCCN(C)C)cs3)nc2-c2csc(n2)[C@@H]2COC(=O)c3c4c5c(cccc5n3O)COC(=O)[C@@H](O[C@H]3C[C@](C)(O)[C@H](N(C)C)[C@H](C)O3)[C@@H](OC4)[C@H](NC(=O)c3csc1n3)c1nc(cs1)C(=O)N2.O=C(O)C(F)(F)F	> 10000			
CO/C(C)=C1/NC(=O)[C@H]([C@@H](C)O)NC(=O)c2csc(n2)-c2cc(O)c(-c3nc(CNC(=O)CCN4CCOCC4)cs3)nc2-c2csc(n2)[C@@H]2COC(=O)c3c4c5c(cccc5n3O)COC(=O)[C@@H](O[C@H]3C[C@](C)(O)[C@H](N(C)C)[C@H](C)O3)[C@@H](OC4)[C@H](NC(=O)c3csc1n3)c1nc(cs1)C(=O)N2.O=C(O)C(F)(F)F	> 10000			
CO/C(C)=C1/NC(=O)[C@H]([C@@H](C)O)NC(=O)c2csc(n2)-c2cc(O)c(-c3nc(CNC(=O)CN4CCN(C)CC4)cs3)nc2-c2csc(n2)[C@@H]2COC(=O)c3c4c5c(cccc5n3O)COC(=O)[C@@H](O[C@H]3C[C@](C)(O)[C@H](N(C)C)[C@H](C)O3)[C@@H](OC4)[C@H](NC(=O)c3csc1n3)c1nc(cs1)C(=O)N2.O=C(O)C(F)(F)F	> 10000			
CO/C(C)=C1/NC(=O)[C@H]([C@@H](C)O)NC(=O)c2csc(n2)-c2cc(O)c(-c3nc(CNC(=O)CN4CCOCC4)cs3)nc2-c2csc(n2)[C@@H]2COC(=O)c3c4c5c(cccc5n3O)COC(=O)[C@@H](O[C@H]3C[C@](C)(O)[C@H](N(C)C)[C@H](C)O3)[C@@H](OC4)[C@H](NC(=O)c3csc1n3)c1nc(cs1)C(=O)N2.O=C(O)C(F)(F)F	> 10000			
CO/C(C)=C1/NC(=O)[C@H]([C@@H](C)O)NC(=O)c2csc(n2)-c2cc(O)c(-c3nc(CNC(=O)CN(C)C)cs3)nc2-c2csc(n2)[C@@H]2COC(=O)c3c4c5c(cccc5n3O)COC(=O)[C@@H](O[C@H]3C[C@](C)(O)[C@H](N(C)C)[C@H](C)O3)[C@@H](OC4)[C@H](NC(=O)c3csc1n3)c1nc(cs1)C(=O)N2.O=C(O)C(F)(F)F	> 10000			
CO/C(C)=C1/NC(=O)[C@H]([C@@H](C)O)NC(=O)c2csc(n2)-c2cc(O)c(-c3nc(CNCc4cncnc4)cs3)nc2-c2csc(n2)[C@@H]2COC(=O)c3c4c5c(cccc5n3O)COC(=O)[C@@H](O[C@H]3C[C@](C)(O)[C@H](N(C)C)[C@H](C)O3)[C@@H](OC4)[C@H](NC(=O)c3csc1n3)c1nc(cs1)C(=O)N2.O=C(O)C(F)(F)F	> 10000			
CO/C(C)=C1/NC(=O)[C@H]([C@@H](C)O)NC(=O)c2csc(n2)-c2cc(O)c(-c3nc(CN(CCO)CCO)cs3)nc2-c2csc(n2)[C@@H]2COC(=O)c3c4c5c(cccc5n3O)COC(=O)[C@@H](O[C@H]3C[C@](C)(O)[C@H](N(C)C)[C@H](C)O3)[C@@H](OC4)[C@H](NC(=O)c3csc1n3)c1nc(cs1)C(=O)N2.O=C(O)C(F)(F)F	> 10000			
CO/C(C)=C1/NC(=O)[C@H]([C@@H](C)O)NC(=O)c2csc(n2)-c2cc(O)c(-c3nc(CNCC(C)(C)N4CCCCC4)cs3)nc2-c2csc(n2)[C@@H]2COC(=O)c3c4c5c(cccc5n3O)COC(=O)[C@@H](O[C@H]3C[C@](C)(O)[C@H](N(C)C)[C@H](C)O3)[C@@H](OC4)[C@H](NC(=O)c3csc1n3)c1nc(cs1)C(=O)N2.O=C(O)C(F)(F)F	> 10000			
CO/C(C)=C1/NC(=O)[C@H]([C@@H](C)O)NC(=O)c2csc(n2)-c2cc(O)c(-c3nc(CNCCO)cs3)nc2-c2csc(n2)[C@@H]2COC(=O)c3c4c5c(cccc5n3O)COC(=O)[C@@H](O[C@H]3C[C@](C)(O)[C@H](N(C)C)[C@H](C)O3)[C@@H](OC4)[C@H](NC(=O)c3csc1n3)c1nc(cs1)C(=O)N2.O=C(O)C(F)(F)F	> 10000			
CO/C(C)=C1/NC(=O)[C@H]([C@@H](C)O)NC(=O)c2csc(n2)-c2cc(O)c(-c3nc(CNCC(O)CO)cs3)nc2-c2csc(n2)[C@@H]2COC(=O)c3c4c5c(cccc5n3O)COC(=O)[C@@H](O[C@H]3C[C@](C)(O)[C@H](N(C)C)[C@H](C)O3)[C@@H](OC4)[C@H](NC(=O)c3csc1n3)c1nc(cs1)C(=O)N2.O=C(O)C(F)(F)F (stereo not given in full)	> 10000			
CO/C(C)=C1/NC(=O)[C@H]([C@@H](C)O)NC(=O)c2csc(n2)-c2cc(O)c(-c3nc(CNCC[C@H](O)[C@H](O)CO)cs3)nc2-c2csc(n2)[C@@H]2COC(=O)c3c4c5c(cccc5n3O)COC(=O)[C@@H](O[C@H]3C[C@](C)(O)[C@H](N(C)C)[C@H](C)O3)[C@@H](OC4)[C@H](NC(=O)c3csc1n3)c1nc(cs1)C(=O)N2.O=C(O)C(F)(F)F	> 10000			
CO/C(C)=C1/NC(=O)[C@H]([C@@H](C)O)NC(=O)c2csc(n2)-c2cc(O)c(-c3nc(CN(C)C)cs3)nc2-c2csc(n2)[C@@H]2COC(=O)c3c4c5c(cccc5n3O)COC(=O)[C@@H](O[C@H]3C[C@](C)(O)[C@H](N(C)C)[C@H](C)O3)[C@@H](OC4)[C@H](NC(=O)c3csc1n3)c1nc(cs1)C(=O)N2.O=C(O)C(F)(F)F	> 10000			
CO/C(C)=C1/NC(=O)[C@H]([C@@H](C)O)NC(=O)c2csc(n2)-c2cc(O)c(-c3nc(CN)cs3)nc2-c2csc(n2)[C@@H]2COC(=O)c3c4c5c(cccc5n3O)COC(=O)[C@@H](O[C@H]3C[C@](C)(O)[C@H](N(C)C)[C@H](C)O3)[C@@H](OC4)[C@H](NC(=O)c3csc1n3)c1nc(cs1)C(=O)N2.O=C(O)C(F)(F)F	> 10000			
CO/C(C)=C1/NC(=O)[C@H]([C@@H](C)O)NC(=O)c2csc(n2)-c2cc(O)c(-c3nc(CNC(=O)NCCc4cnc[nH]4)cs3)nc2-c2csc(n2)[C@@H]2COC(=O)c3c4c5c(cccc5n3O)COC(=O)[C@@H](O[C@H]3C[C@](C)(O)[C@H](N(C)C)[C@H](C)O3)[C@@H](OC4)[C@H](NC(=O)c3csc1n3)c1nc(cs1)C(=O)N2		0.5 (≈ 0.335 µM)	0.125 (≈ 0.0838 µM)	
CO/C(C)=C1/NC(=O)[C@H]([C@@H](C)O)NC(=O)c2csc(n2)-c2cc(O)c(-c3nc(CNC(=O)NCCN(C)C)cs3)nc2-c2csc(n2)[C@@H]2COC(=O)c3c4c5c(cccc5n3O)COC(=O)[C@@H](O[C@H]3C[C@](C)(O)[C@H](N(C)C)[C@H](C)O3)[C@@H](OC4)[C@H](NC(=O)c3csc1n3)c1nc(cs1)C(=O)N2		0.5 (≈ 0.34 µM)	0.125 (≈ 0.0851 µM)	
CO/C(C)=C1/NC(=O)[C@H]([C@@H](C)O)NC(=O)c2csc(n2)-c2cc(O)c(-c3nc(CNC(=O)NCC(O)CO)cs3)nc2-c2csc(n2)[C@@H]2COC(=O)c3c4c5c(cccc5n3O)COC(=O)[C@@H](O[C@H]3C[C@](C)(O)[C@H](N(C)C)[C@H](C)O3)[C@@H](OC4)[C@H](NC(=O)c3csc1n3)c1nc(cs1)C(=O)N2 (stereo not given in full)		0.5 (≈ 0.34 µM)	0.06 (≈ 0.0408 µM)	0.015 (≈ 0.0102 µM)
CO/C(C)=C1/NC(=O)[C@H]([C@@H](C)O)NC(=O)c2csc(n2)-c2cc(O)c(-c3nc(CNC(=O)C(N)=O)cs3)nc2-c2csc(n2)[C@@H]2COC(=O)c3c4c5c(cccc5n3O)COC(=O)[C@@H](O[C@H]3C[C@](C)(O)[C@H](N(C)C)[C@H](C)O3)[C@@H](OC4)[C@H](NC(=O)c3csc1n3)c1nc(cs1)C(=O)N2		0.0075 (≈ 0.00526 µM)	0.0075 (≈ 0.00526 µM)	0.00457 (≈ 0.00321 µM)
CO/C(C)=C1/NC(=O)[C@H]([C@@H](C)O)NC(=O)c2csc(n2)-c2cc(O)c(-c3nc(CNC(=O)C(NC(N)=O)c4ccc(O)cc4)cs3)nc2-c2csc(n2)[C@@H]2COC(=O)c3c4c5c(cccc5n3O)COC(=O)[C@@H](O[C@H]3C[C@](C)(O)[C@H](N(C)C)[C@H](C)O3)[C@@H](OC4)[C@H](NC(=O)c3csc1n3)c1nc(cs1)C(=O)N2 (stereo not given in full)		> 1	> 1	
CO/C(C)=C1/NC(=O)[C@H]([C@@H](C)O)NC(=O)c2csc(n2)-c2cc(O)c(-c3nc(CN(CCO)CCO)cs3)nc2-c2csc(n2)[C@@H]2COC(=O)c3c4c5c(cccc5n3O)COC(=O)[C@@H](O[C@H]3C[C@](C)(O)[C@H](N(C)C)[C@H](C)O3)[C@@H](OC4)[C@H](NC(=O)c3csc1n3)c1nc(cs1)C(=O)N2		0.12 (≈ 0.0832 µM)	0.06 (≈ 0.0416 µM)	0.0075 (≈ 0.0052 µM)
CO/C(C)=C1/NC(=O)[C@H]([C@@H](C)O)NC(=O)c2csc(n2)-c2cc(O)c(-c3nc(CNCC(C)(C)N4CCOCC4)cs3)nc2-c2csc(n2)[C@@H]2COC(=O)c3c4c5c(cccc5n3O)COC(=O)[C@@H](O[C@H]3C[C@](C)(O)[C@H](N(C)C)[C@H](C)O3)[C@@H](OC4)[C@H](NC(=O)c3csc1n3)c1nc(cs1)C(=O)N2		0.03 (≈ 0.0201 µM)	0.06 (≈ 0.0401 µM)	0.00046 (≈ 0.000308 µM)
CO/C(C)=C1/NC(=O)[C@H]([C@@H](C)O)NC(=O)c2csc(n2)-c2cc(O)c(-c3nc(CNCC(O)CO)cs3)nc2-c2csc(n2)[C@@H]2COC(=O)c3c4c5c(cccc5n3O)COC(=O)[C@@H](O[C@H]3C[C@](C)(O)[C@H](N(C)C)[C@H](C)O3)[C@@H](OC4)[C@H](NC(=O)c3csc1n3)c1nc(cs1)C(=O)N2 (stereo not given in full)		0.25 (≈ 0.175 µM)	0.06 (≈ 0.042 µM)	0.0075 (≈ 0.00525 µM)
CO/C(C)=C1/NC(=O)[C@H]([C@@H](C)O)NC(=O)c2csc(n2)-c2cc(O)c(-c3nc(CNCC[C@H](O)[C@H](O)CO)cs3)nc2-c2csc(n2)[C@@H]2COC(=O)c3c4c5c(cccc5n3O)COC(=O)[C@@H](O[C@H]3C[C@](C)(O)[C@H](N(C)C)[C@H](C)O3)[C@@H](OC4)[C@H](NC(=O)c3csc1n3)c1nc(cs1)C(=O)N2		1 (≈ 0.679 µM)	0.125 (≈ 0.0849 µM)	0.015 (≈ 0.0102 µM)
C=C(NC(=O)c1csc(-c2nc3c(cc2O)-c2nc(cs2)C(=O)N[C@@H]([C@@H](C)O)C(=O)N/C(=C(\C)OC)c2nc(cs2)C(=O)N[C@@H]2c4nc(cs4)C(=O)N[C@@H](COC(=O)c4c5c6c(cccc6n4O)COC(=O)[C@@H](O[C@H]4C[C@](C)(O)[C@H](N(C)C)[C@H](C)O4)[C@H]2OC5)c2nc-3cs2)n1)C(N)=O [MJ347-81F4 A]		0.03 (≈ 0.0209 µM)	0.007 (≈ 0.00487 µM)	0.002 (≈ 0.00139 µM)

Source: ChEMBL document CHEMBL2311426, “Synthesis and antibacterial activity of novel water-soluble nocathiacin analogs” (Bioorg Med Chem Lett, 2013)
